{
  "source": "patent US20070140978A1",
  "about": "“Adrenergic complement inhaler” (priority 2004, published 2007)",
  "system": "child with severe nasal congestion due to a cold",
  "assay": "Severe nasal congestion due to a cold, child",
  "assay_type": "in vivo, human",
  "details": "every four hours",
  "excerpt": "A child presents with severe nasal congestion due to a cold. […] The child then supplements the oral medication by using the composition of this Example, one spray into each nostril, following each dose of the oral medication.",
  "data": [
    {"smiles": "CN[C@@H](C)[C@@H](O)c1ccccc1", "note": "[pseudophedrine]", "values": [
      {"measurement": "relief of nasal congestion, oral medication alone", "result": "limited relief"}
    ]}
  ]
}
